Data set [1] deals with L1210. Put plainly: Cytotoxicity expressed as concentration required to inhibit cell growth by 50% on continuous exposure time of 72 hr in L1210 cell line by MTT assay. Type of data set: functional, cell-based. Particulars: Mus musculus, L1210, 72 h. A general note: Tetrazolium dyes change colour on reduction, which living cells bring about.
Data set [2] relates to L1210. Put plainly: Cytotoxicity expressed as concentration required to inhibit cell growth by 50% on continuous exposure time of 96h in L1210 cell line by MTT assay. Particulars: Mus musculus, L1210, 96 h. Type of data set: functional, cell-based.
The test system of data set [3] is Mus musculus. In words: Percentage change in the body weight on day 20 after intravenous administration (8 mg/Kg) against human breast cancer xenograph Bcap-37 (grown sc in athymic mice). In kind it is functional.
The subject of data set [4] is Mus musculus. Put plainly: Percentage change in the body weight on day 20 after intravenous administration (10 mg/kg) against B16 melanoma (implanted subcutaneously in mice). Type of data set: functional.
Data set [5] concerns Mus musculus. In words: Tumor inhibition expressed as (average tumor weight of treated group/average tumor weight of control group)*100 at a dose of (8 mg/kg). Type of data set: functional.
The test system of data set [6] is Mus musculus. In words: Tumor inhibition expressed as (average tumor weight of treated group/average tumor weight of control group)*100 at a dose of 10 mg/kg. Type of data set: functional.
Data set [7] concerns PG-49 cell line. Put plainly: Cytotoxicity expressed as concentration required to inhibit cell growth by 50% on continuous exposure time of 72 hr in PG-49 cell line by MTT assay. Type of data set: functional, cell-based. Particulars: Homo sapiens, PG-49, 72 h.
Data set [8] relates to PG-49 cell line. Put plainly: Cytotoxicity expressed as concentration required to inhibit cell growth by 50% on continuous exposure time of 96h in PG-49 cell line by MTT assay. In kind it is functional, cell-based. Particulars: Homo sapiens, PG-49, 96 h.
A short description of data set [9]: Toxicity expressed in terms of number of toxic deaths after administration (10 mg/Kg) in mice; out of 10 tested. Particulars: mouse, in vivo.
A short description of data set [10]: Toxicity expressed in terms of number of toxic deaths after administration (8 mg/Kg) in athymic mice; out of 6 tested. Particulars: mouse, in vivo.

Results on 1 compound are retold here after ChEMBL document CHEMBL1134969, “Synthesis and evaluation of water-soluble paclitaxel prodrugs” (Bioorg Med Chem Lett, 2002).

Usually IC50 stands for the concentration that gives 50% inhibition. High values mean lower potency, low ones higher potency.

Consider `CC(=O)O[C@H]1C(=O)[C@@]2(C)[C@H]([C@H](OC(=O)c3ccccc3)[C@]3(O)C[C@H](OC(=O)[C@H](O)[C@@H](NC(=O)c4ccccc4)c4ccccc4)C(C)=C1C3(C)C)[C@]1(OC(C)=O)CO[C@@H]1C[C@@H]2O` [PACLITAXEL], for which the IC50 in the data set with L1210 [1] was found to be 0.58 nM; with L1210 [2] it was 0.09 nM; in the data set with PG-49 cell line [7], 2.14 nM; with PG-49 cell line [8], 0.31 nM. Also, the Body weight change amounted to 16.9% in the data set with Mus musculus [3] and 7.8% in the data set on Mus musculus [4]. Further, the Tumor inhibition was determined as 78.02% in the data set with Mus musculus [5] and 71.4% in the data set on Mus musculus [6]. The Toxicity turned out to be 2 in data set [9] and 0 in data set [10].
